18 compounds from patent publication US5068190A, “N-acetylhexosamine-dehydrogenase, process for producing same, method for the quantitative analysis of N-acetylglucosamine or N-acetylgalactosamine using same and kit for use in the quantitative analysis” (Noda Institute for Scientific Research, priority 1988, dated 1991) can be followed below.

The first test concerns N-acetylhexosamine-dehydrogenase (N-AHDH). Put plainly: Action and substrate specificity of the enzyme. The format is biochemical, Pseudomonas sp. No. 53. The following applies: in the presence of NAD+. On the procedure:
As shown in the following reaction scheme, this enzyme oxidizes N-acetylglucosamine or N-acetylgalactosamine to N-acetylglucosaminolactoneor N-acetylgalactosaminolactone in the presence of NAD^+ and, at the same time, reduces the NAD^+ to NADH. [drawing 1]
(§1) To 1.8 ml of 0.1 M glycine-sodium hydroxide buffer (pH 9.5) is added 0.1 ml of 60 mM […] solution. After keeping the mixture at 37° C. for 10 minutes, 10 microliters of enzyme solution is added, and subsequently 0.1 ml of 0.3M N-acetylglucosamine solution is mixed to start the reaction. The reaction mixture is immediately transferred into an absorbance measurement cell (1 cm path) kept at 37° C., and absorbance is measured at intervals of one minute at a wavelength of 340 nm over a period of 5 minutes or, if desired, over a longer period of time. A quantity of enzyme capable of forming one micromole of NADH per one minute is taken as "one unit".
Take `CC(=O)N[C@H]1[C@H](O[C@H]2[C@H](O)[C@@H](NC(C)=O)C(O)O[C@@H]2CO)O[C@H](CO)[C@@H](O)[C@@H]1O` (stereo partly shown) [N,N'-diacetylchitobiose]: the “Action of the enzyme upon the sugar (substrate specificity)” value (shortened to “Action of the enzyme upon the sugar”) is “no action at all or hardly exercises an action”.
`CC(=O)N[C@H]1C(O)O[C@H](CO)[C@H](O)[C@@H]1O` (stereo partly shown) [N-acetylgalactosamine]: the “Action of the enzyme upon the sugar” value was “oxidizes”.
Same read-out and setting: under `CC(=O)N[C@H]1C(O)O[C@H](CO)[C@@H](O)[C@@H]1O` (stereo partly shown) [N-acetylglucosamine] stands “oxidizes”.
Take `CC(=O)N[C@@H]1C(O)O[C@H](CO)[C@@H](O)[C@@H]1O` (stereo partly shown) [N-acetylmannosamine]: the “Action of the enzyme upon the sugar” value was “only a slight action”.

Staying with this test, now noted: in the presence of NAD+; listed as acetylchitobiose.
Consider `CC(=O)N[C@H]1[C@H](O[C@H]2[C@H](O)[C@@H](NC(C)=O)C(O)O[C@@H]2CO)O[C@H](CO)[C@@H](O)[C@@H]1O` (stereo partly shown) [N,N'-diacetylchitobiose], for which the “Action of the enzyme upon the sugar” value was “does not act”.

The next test shares this test system. Put plainly: Influence of inhibitor on enzyme activity.
Conditions: not given
It is filed as biochemical, Pseudomonas sp. No. 53. The method, then: In the table presented above, enzyme activity was measured in a solution containing 2 mM of metallic ion or inhibitor. There is known no substance particularly contributing to activation and stabilization.
as §1
As for `Oc1cccc2cccnc12` [8-Hydroxyquinoline], the Residual activity was found to be 110.

Staying with this test, now noted: solution containing 2 mM of metallic ion or inhibitor.
Take `[Ca+2].[Cl-].[Cl-]` [CaCl2]: the Residual activity was determined as 95%.
On the same count and under the same terms, in the case of `O=S(=O)([O-])[O-].[Cd+2]` [CdSO4] it was 92%; in that of `O=S(=O)([O-])[O-].[Cu+2]` [CuSO4], 94%.
Turning to `O=C(O)CN(CCN(CC(=O)O)CC(=O)O)CC(=O)O` [EDTA], the Residual activity is on record as 101%.
Take `[Cl][Hg][Cl]` [HgCl2]: the Residual activity was 35%.
Same read-out and setting: under `NC(=O)CI` [Iodoacetamide] stands 104%; under `O=S(=O)([O-])[O-].[Mn+2]` [MnSO4], 96%; under `[N-]=[N+]=[N-].[Na+]` [NaN3], 89%.
With `O=C(O)c1cc[c]([Hg][Cl])cc1` [PCMB], the Residual activity was 97%.
Same read-out and setting: in the case of `CCCCCCCCCCCCOS(=O)(=O)O` [SDS] it was 62%; in that of `O=S(=O)([O-])[O-].[Zn+2]` [ZnSO4], 95%; in that of `c1cnc2c(c1)ccc1cccnc12` [o-Phenanthroline], 104%.
On the same count and under the same terms, under `c1ccc(-c2ccccn2)nc1` [α, α'-Dipyridyl] stands 107%.
